Experimental data as given in patent US12115163B2, “Combination therapy comprising a MAT2A inhibitor and a type II PRMT inhibitor” (IDEAYA BIOSCIENCES, INC., priority 2021, dated 2024).
“Also recorded” adds a separate entry of the source.

What was measured:
Assay type in all cases: in vivo, mouse
[1] = tested on: HCT-116 MTAP-deleted tumors; assay: Efficacy of Compound A and Compound B in HCT-116 MTAP-deleted xenografts (Example 5); details: for TGI (%) / Final TV (mean): Day 21; for Final TV (mean): initial TV 224
Description: (§1) The effect of Compound A and Compound B (HCl salt was used) as single-agent anti-tumor agents and in combination was assessed in the HCT-116 human colon tumor cell line, MTAP isogenic pair (MTAP proficient (WT) or MTAP-deleted). Cells were expanded in DMEM/F12 GlutaMAX (Fisher Scientific, Catalog Number 10-565-018) with 10% fetal bovine serum. These cells were free of mycoplasma and authenticated as HCT-116 by STR profiling. Two and a half million cells in log growth phase were resuspended in Hanks Balanced Salt Solution containing 50% Matrigel and implanted subcutaneously into the flank of each recipient female nu/nu mouse. Mice were housed in microisolator cages with corn cob bedding with additional enrichment consisting of sterile nesting material (Innovive) and Bio-huts (Bio-Serv). Water (Innovive) and diet (Teklad Global 19% Protein Extruded Diet 2919, Irradiated) were provided ad libitum. The environment was maintained on a 12-hour light cycle at approximately 68-72° F. and 40-60% relative humidity.
(§2) Tumor Volume (TV) was calculated using the following formula: TV (mm^3)=(width×width×length)/2. No dose holidays were provided for during the study and all mice were euthanized following the final dose on Day 21 (MTAP-deleted) or Day 15 (MTAP WT). Tumor growth inhibition (TGI) was calculated by [(TV controlfinal−TV treatedfinal)/(TV controlfinal−TV controlinitial)×100]. A TGI greater than 100% indicates tumor regressions. TV was analyzed for statistical significance utilizing GraphPad Prism version 9.1.0. Repeated Measures 2-Way ANOVA with Tukey's Multiple Comparisons was utilized, and P-values were presented from the final tumor measurement and were considered statistically significant if less than 0.05.
(§3) Mean tumor volume at dosing start was approximately 224 mm^3, with seven mice randomized to each treatment group. In the HCT-116 MTAP-deleted tumor model, mice were dosed orally, twice per day (BID) with Vehicle, once per day (QD) with Compound A at 1 or 3 mg/kg, or BID with Compound B at 3, 10, or 30 mg/kg, or Compound A combined with Compound B at each dose level. In the HCT-116 WT tumor model, mice were dosed orally, with BID Vehicle, QD with Compound A at 3 mg/kg, or BID with Compound B at 10 or 30 mg/kg, or Compound A combined with Compound B. The Vehicle was 0.5% 400 cps methylcellulose with 0.5% Tween-80 in sterile water.

[2] = tested on: LU99 MTAP-deleted xenografts; assay: Efficacy of Compound A and Compound B in LU99 NSCLC xenograft (Example 7); details: for TGI (%) / Final TV (mean): Study Day 21
Description: (§4) The effect of Compound A and Compound B (HCl salt was used) as single-agent anti-tumor agents and in combination was assessed in the JCRB LU99 human NSCLC tumor cell line, an endogenously MTAP-deleted cell line. Cells were expanded in RPMI with 10% fetal bovine serum. These cells were free of mycoplasma and authenticated by STR profiling. Ten million cells in log growth phase were resuspended in RPMI-1640 containing 50% Matrigel and implanted subcutaneously into the flank of each recipient female BALB/c nude mouse. The mice were be kept in laminar flow rooms at constant temperature and humidity with 3-5 mice in each cage. Animals were housed in polycarbonate cages maintained at a temperature of 23±3° C. and a relative humidity of 40% to 70%. The bedding material was soft wood, which was changed once per week. Water and diet were provided ad libitum.
as §2, with “study.” for “study and all mice were euthanized following the final dose on Day 21 (MTAP-deleted) or Day 15 (MTAP WT).”, “measurement on Study Day 21” for “measurement”
(§5) Mean tumor volume at dosing start was approximately 141 mm^3, with ten mice randomized to each treatment group, with the study consisting of eight treatment groups. Mice were dosed orally, twice per day (BID) with Vehicle, once per day (QD) with Compound A at 3 mg/kg, or BID with Compound B at 1, 10, or 30 mg/kg, or Compound A combined with Compound B at each dose level. The Vehicle was 0.5% 400 cps methylcellulose with 0.5% Tween-80 in sterile water.

HCT-116 MTAP WT tumors = assay: Efficacy of Compound A and Compound B in HCT-116 MTAP WT xenografts (Example 5); details: for TGI (%) / Final TV (mean): Day 15; for Final TV (mean): initial TV 228
Description: as §1, §2, §3

[3] = tested on: NCI-H838 MTAP-deleted xenografts; assay: Efficacy of Compound A and Compound B in NCI-H838 NSCLC xenograft (Example 6); details: for TGI (%): Study Day 25; for Final TV (mean): initial TV 140
Description: as §4, with “NCI-H838” for “JCRB LU99”
as §2, with “the study.” for “the study and all mice were euthanized following the final dose on Day 21 (MTAP-deleted) or Day 15 (MTAP WT).”, “the Study Day 25” for “the final”
as §5, with “140” for “141”

[4] = HCT-116 MTAP WT model, over the dose levels tested

Question: Which “TGI (%)” value ([1]; Compound B 3 mg/kg BID orally) does the source give for `Cn1ncc(-c2ccc3c(=O)[nH]nc(CN)c3c2)c1-c1c(F)cc2ccccc2c1C#N` (atropisomer, axis not shown) [Compound B] here?
Answer: The value was 29%.

Question: What about the “Final TV (mean)” value ([1]; Compound B 3 mg/kg BID orally) of the same molecule?
Answer: Its value is 1015 mm^3.

Question: What about the “TGI (%)” value ([1]; Compound B 10 mg/kg BID orally) of the same molecule?
Answer: The value was 49%.

Question: And the “Final TV (mean)” value ([1]; Compound B 10 mg/kg BID orally)?
Answer: Its value is 794 mm^3.

Question: What about the “TGI (%)” value ([1]; Compound B 30 mg/kg BID orally) of the same molecule?
Answer: The value was 83%.

Question: And the “Final TV (mean)” value ([1]; Compound B 30 mg/kg BID orally)?
Answer: The value was 420 mm^3.

Question: What about the “TGI (%)” value ([2]; Compound B 1 mg/kg BID orally) of the same molecule?
Answer: The value was 23%.

Question: And the “Final TV (mean)” value ([2]; Compound B 1 mg/kg BID orally, initial TV 142)?
Answer: The value was 1765 mm^3.

Question: And the “TGI (%)” value ([2]; Compound B 10 mg/kg BID orally)?
Answer: The value was 74%.

Question: What about the “Final TV (mean)” value ([2]; Compound B 10 mg/kg BID orally, initial TV 142) of the same molecule?
Answer: Its value is 683 mm^3.

Question: What about the “TGI (%)” value ([2]; Compound B 30 mg/kg BID orally) of the same molecule?
Answer: The value was 90%.

Question: And the “Final TV (mean)” value ([2]; Compound B 30 mg/kg BID orally, initial TV 141)?
Answer: Its value is 353 mm^3.

Question: And the “anti-tumor activity (in words)” value (HCT-116 MTAP WT tumors; Compound B 10 mg/kg BID)?
Answer: The value was “significantly enhanced tumor growth”.

Question: What about the “TGI (%)” value (HCT-116 MTAP WT tumors; Compound B 10 mg/kg BID orally) of the same molecule?
Answer: The value was −52%.

Question: What about the “Final TV (mean)” value (HCT-116 MTAP WT tumors; Compound B 10 mg/kg BID orally) of the same molecule?
Answer: The value was 1596 mm^3.

Question: And the “TGI (%)” value (HCT-116 MTAP WT tumors; Compound B 30 mg/kg BID orally)?
Answer: Its value is −27%.

Question: What about the “Final TV (mean)” value (HCT-116 MTAP WT tumors; Compound B 30 mg/kg BID orally) of the same molecule?
Answer: Its value is 1372 mm^3.

Question: What about the “anti-tumor activity (in words)” value (HCT-116 MTAP WT tumors; [4]) of the same molecule?
Answer: The value was “no single agent activity”.

Question: What about the “TGI (%)” value ([3]; Compound B 1 mg/kg BID orally) of the same molecule?
Answer: Its value is 53%.

Question: What about the “Final TV (mean)” value ([3]; Compound B 1 mg/kg BID orally) of the same molecule?
Answer: Its value is 899 mm^3.

Question: And the “TGI (%)” value ([3]; Compound B 10 mg/kg BID orally)?
Answer: Its value is 56%.

Question: What about the “Final TV (mean)” value ([3]; Compound B 10 mg/kg BID orally) of the same molecule?
Answer: Its value is 839 mm^3.

Question: What about the “TGI (%)” value ([3]; Compound B 30 mg/kg BID orally) of the same molecule?
Answer: Its value is 67%.

Question: What about the “Final TV (mean)” value ([3]; Compound B 30 mg/kg BID orally) of the same molecule?
Answer: Its value is 666 mm^3.

Question: For `Nc1nc(=O)n(-c2ccccc2Cl)c2nc(C(F)(F)F)ccc12` [Compound A], which “TGI (%)” value ([1]; Compound A 1 mg/kg QD orally) is on record?
Answer: Its value is 64%.

Question: What about the “Final TV (mean)” value ([1]; Compound A 1 mg/kg QD orally) of the same molecule?
Answer: The value was 632 mm^3.

Question: And the “TGI (%)” value ([1]; Compound A 3 mg/kg QD orally)?
Answer: Its value is 80%.

Question: What about the “Final TV (mean)” value ([1]; Compound A 3 mg/kg QD orally) of the same molecule?
Answer: The value was 450 mm^3.

Question: And the “anti-tumor activity (in words)” value ([1]; HCT-116 MTAP-deleted model, over the dose levels tested)?
Answer: The value was “statistically significant anti-tumor activity”.

Question: And the “TGI (%)” value ([2]; Compound A 3 mg/kg QD orally)?
Answer: Its value is 43%.

Question: What about the “Final TV (mean)” value ([2]; Compound A 3 mg/kg QD orally, initial TV 142) of the same molecule?
Answer: Its value is 1341 mm^3.

Question: And the “anti-tumor activity (in words)” value ([2]; LU99 model, over the dose levels tested)?
Answer: The value was “statistically significant anti-tumor activity”.

Question: And the “TGI (%)” value (HCT-116 MTAP WT tumors; Compound A 3 mg/kg QD orally)?
Answer: Its value is −9%.

Question: What about the “Final TV (mean)” value (HCT-116 MTAP WT tumors; Compound A 3 mg/kg QD orally) of the same molecule?
Answer: Its value is 1211 mm^3.

Question: And the “anti-tumor activity (in words)” value (HCT-116 MTAP WT tumors; [4])?
Answer: The value was “no tumor growth inhibition; also recorded: no single agent activity”.

Question: What about the “TGI (%)” value ([3]; Compound A 3 mg/kg QD orally) of the same molecule?
Answer: The value was 79%.

Question: And the “Final TV (mean)” value ([3]; Compound A 3 mg/kg QD orally)?
Answer: Its value is 478 mm^3.

Question: What about the “anti-tumor activity (in words)” value ([3]; NCI-H838 model, over the dose levels tested) of the same molecule?
Answer: Its value is “statistically significant anti-tumor activity”.
